Results as given in patent US9113629B2, “4-amino-6-(4-substituted-phenyl)-picolinates and 6-amino-2-(4-substituted-phenyl)-pyrimidine-4-carboxylates and their use as herbicides” (DOW AGROSCIENCES LLC, priority 2013, dated 2015).

Legend:
Experiment in all cases: Post-emergent Test III, herbicidal activity in wheat and barley
Assay type in all cases: in vivo
[1] = system: SETVI: green foxtail (Setaria viridis); conditions: Table 9, 21 d; for pest or weed control at 35 g/ha / pest or weed control at 70 g/ha / pest or weed control at 140 g/ha: Setaria viridis, post-emergence, 504 h, post-emergent, read-out: Visual Growth Reduction (%) 21 Days After Application SETVI; for pest or weed control at 35 g/ha: 35 g ai/ha; for pest or weed control at 70 g/ha: 70 g ai/ha; for pest or weed control at 140 g/ha: 140 g ai/ha; for GR50 SETVI: dose for 50 percent growth reduction; for GR50 SETVI / GR80 SETVI: probit analysis; for GR80 SETVI: dose for 80 percent growth reduction
Summary of the method: (§1)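 Plants at the second to third true-leaf stage, grown in a greenhouse at about 18/17 °C with a 14 h photoperiod, were sprayed post-emergence at 187 L/ha with the high rate and ½× to 1/16× serial dilutions in an acetone/DMSO/crop-oil/surfactant carrier. Injury was rated visually at 21 d on a 0–100% scale, and GR20–GR90 were derived by probit analysis.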

[2] = system: KCHSC: kochia (Kochia scoparia); conditions: Table 9, 21 d; for pest or weed control at 35 g/ha / pest or weed control at 70 g/ha / pest or weed control at 140 g/ha: Bassia scoparia, post-emergence, 504 h, post-emergent, read-out: Visual Growth Reduction (%) 21 Days After Application KCHSC; for pest or weed control at 35 g/ha: 35 g ai/ha; for pest or weed control at 70 g/ha: 70 g ai/ha; for pest or weed control at 140 g/ha: 140 g ai/ha; for GR50 KCHSC: dose for 50 percent growth reduction; for GR50 KCHSC / GR80 KCHSC: probit analysis; for GR80 KCHSC: dose for 80 percent growth reduction
Summary of the method: as §1

[3] = system: HORSS: barley, including spring and winter (Hordeum vulgare); conditions: Table 9, 21 d; for pest or weed control at 35 g/ha / pest or weed control at 70 g/ha / pest or weed control at 140 g/ha: Hordeum vulgare, post-emergence, 504 h, post-emergent, read-out: Visual Growth Reduction (%) 21 Days After Application HORSS; for pest or weed control at 35 g/ha: 35 g ai/ha; for pest or weed control at 70 g/ha: 70 g ai/ha; for pest or weed control at 140 g/ha: 140 g ai/ha; for GR20 HORSS: dose for 20 percent growth reduction, probit analysis
Summary of the method: as §1

[4] = system: TRZSS: wheat, including spring and winter (Triticum aestivum); conditions: Table 9, 21 d; for GR20 TRZSS: dose for 20 percent growth reduction, probit analysis; for pest or weed control at 35 g/ha / pest or weed control at 70 g/ha / pest or weed control at 140 g/ha: Triticum aestivum, post-emergence, 504 h, post-emergent, read-out: Visual Growth Reduction (%) 21 Days After Application TRZSS; for pest or weed control at 35 g/ha: 35 g ai/ha; for pest or weed control at 70 g/ha: 70 g ai/ha; for pest or weed control at 140 g/ha: 140 g ai/ha
Summary of the method: as §1

[5] = system: LOLSS: ryegrass including, Italian ryegrass (Lolium multiflorum), rigid ryegrass (Lolium rigidum), annual ryegrass (Lolium multiflorum subsp. Gaudini); conditions: Table 9, probit analysis, 21 d; for GR50 LOLSS: dose for 50 percent growth reduction; for GR80 LOLSS: dose for 80 percent growth reduction
Summary of the method: as §1

What does the source list for `C#Cc1ccc(-c2nc(N)c(OC)c(C(=O)O)n2)c(F)c1F` [Compound 154]?
pest or weed control at 35 g/ha [1]: 30 to 44%; pest or weed control at 70 g/ha [1]: 60 to 74%; pest or weed control at 140 g/ha [1]: 75 to 84%; GR50 SETVI [1]: 56 g ai/ha; GR80 SETVI [1]: 109 g ai/ha; pest or weed control at 35 g/ha [2]: 0 to 29%; pest or weed control at 70 g/ha [2]: 0 to 29%; pest or weed control at 140 g/ha [2]: 0 to 29%; GR50 KCHSC [2]: 57 g ai/ha; GR80 KCHSC [2]: 93 g ai/ha; pest or weed control at 35 g/ha [3]: 0 to 29%; pest or weed control at 70 g/ha [3]: 0 to 29%; pest or weed control at 140 g/ha [3]: 45 to 59%; GR20 HORSS [3]: 81 g ai/ha; GR20 TRZSS [4]: 49 g ai/ha; pest or weed control at 35 g/ha [4]: 0 to 29%; pest or weed control at 70 g/ha [4]: 30 to 44%; pest or weed control at 140 g/ha [4]: 45 to 59%; GR50 LOLSS [5]: >140 g ai/ha; GR80 LOLSS [5]: >140 g ai/ha

With `Nc1cc(-c2ccc(Br)cc2)nc(C(=O)O)c1Cl` [Compound 168] as the compound, how does the pest or weed control at 35 g/ha [1] read?
Its pest or weed control at 35 g/ha is 45 to 59%.

And the pest or weed control at 70 g/ha [1]?
The pest or weed control at 70 g/ha was 60 to 74%.

And the “GR50 SETVI” value [1]?
The value was 28 g ai/ha.

And the “GR80 SETVI” value [1]?
Its value is 70 g ai/ha.

What about the pest or weed control at 35 g/ha [2] of the same compound?
The pest or weed control at 35 g/ha was 95 to 100%.

And the pest or weed control at 70 g/ha [2]?
Its pest or weed control at 70 g/ha is 95 to 100%.

And the “GR50 KCHSC” value [2]?
The value was 5 g ai/ha.

And the “GR80 KCHSC” value [2]?
Its value is 15 g ai/ha.

And the pest or weed control at 35 g/ha [3]?
Its pest or weed control at 35 g/ha is 85 to 94%.

And the pest or weed control at 70 g/ha [3]?
The pest or weed control at 70 g/ha was 95 to 100%.

And the “GR20 HORSS” value [3]?
Its value is 1 g ai/ha.

And the “GR20 TRZSS” value [4]?
The value was 1 g ai/ha.

What about the pest or weed control at 35 g/ha [4] of the same compound?
The pest or weed control at 35 g/ha was 85 to 94%.

What about the pest or weed control at 70 g/ha [4] of the same compound?
The pest or weed control at 70 g/ha was 95 to 100%.

And the “GR50 LOLSS” value [5]?
Its value is 108 g ai/ha.

What about the “GR80 LOLSS” value [5] of the same compound?
The value was over 140 g ai/ha.

What does the source list for `COc1c(N)nc(-c2ccc(Br)cc2F)nc1C(=O)O` [Compound 46]?
pest or weed control at 35 g/ha [1]: 0 to 29%; pest or weed control at 70 g/ha [1]: 30 to 44%; pest or weed control at 140 g/ha [1]: 30 to 44%; GR50 SETVI [1]: >140 g ai/ha; GR80 SETVI [1]: >140 g ai/ha; pest or weed control at 35 g/ha [2]: 75 to 84%; pest or weed control at 70 g/ha [2]: 85 to 94%; pest or weed control at 140 g/ha [2]: 85 to 94%; GR50 KCHSC [2]: 10 g ai/ha; GR80 KCHSC [2]: 45 g ai/ha; pest or weed control at 35 g/ha [3]: 60 to 74%; pest or weed control at 70 g/ha [3]: 60 to 74%; pest or weed control at 140 g/ha [3]: 85 to 94%; GR20 HORSS [3]: 8 g ai/ha; GR20 TRZSS [4]: 1 g ai/ha; pest or weed control at 35 g/ha [4]: 75 to 84%; pest or weed control at 70 g/ha [4]: 75 to 84%; pest or weed control at 140 g/ha [4]: 85 to 94%; GR50 LOLSS [5]: 118 g ai/ha; GR80 LOLSS [5]: >140 g ai/ha

How did the pest or weed control at 35 g/ha [1] turn out when `COC(=O)c1nc(-c2ccc(Br)cc2F)nc(N)c1OC` [Compound 35] was run?
The pest or weed control at 35 g/ha was 0 to 29%.

What about the pest or weed control at 70 g/ha [1] of the same compound?
The pest or weed control at 70 g/ha was 30 to 44%.

And the “GR50 SETVI” value [1]?
Its value is 79 g ai/ha.

And the “GR80 SETVI” value [1]?
Its value is over 140 g ai/ha.

What about the pest or weed control at 35 g/ha [2] of the same compound?
The pest or weed control at 35 g/ha was 75 to 84%.

What about the pest or weed control at 70 g/ha [2] of the same compound?
The pest or weed control at 70 g/ha was 85 to 94%.

What about the “GR50 KCHSC” value [2] of the same compound?
The value was 8 g ai/ha.

What about the “GR80 KCHSC” value [2] of the same compound?
The value was 37 g ai/ha.

What about the pest or weed control at 35 g/ha [3] of the same compound?
Its pest or weed control at 35 g/ha is 60 to 74%.

What about the pest or weed control at 70 g/ha [3] of the same compound?
The pest or weed control at 70 g/ha was 60 to 74%.

What about the “GR20 HORSS” value [3] of the same compound?
The value was 8 g ai/ha.

And the “GR20 TRZSS” value [4]?
The value was 2 g ai/ha.

And the pest or weed control at 35 g/ha [4]?
Its pest or weed control at 35 g/ha is 75 to 84%.

What about the pest or weed control at 70 g/ha [4] of the same compound?
Its pest or weed control at 70 g/ha is 75 to 84%.

What about the “GR50 LOLSS” value [5] of the same compound?
The value was 126 g ai/ha.

What about the “GR80 LOLSS” value [5] of the same compound?
Its value is over 140 g ai/ha.
